For test [1], the target named is T1, P. falciparum Hsp90 (PfHsp90, PF07_0029) (Plasmodium falciparum, UniProt Q8IC05). Briefly: SPR (Biacore X), positive control; also full-length ATPase inhibition, […]. The class given is binding. Further details: gene PF3D7_0708400; full length also tested in ATPase assay. For orientation: In SPR one partner is held on a chip, and binding of the other changes the refractive index at the surface.
Target sequence in this assay (Q8IC05 entry or part of it): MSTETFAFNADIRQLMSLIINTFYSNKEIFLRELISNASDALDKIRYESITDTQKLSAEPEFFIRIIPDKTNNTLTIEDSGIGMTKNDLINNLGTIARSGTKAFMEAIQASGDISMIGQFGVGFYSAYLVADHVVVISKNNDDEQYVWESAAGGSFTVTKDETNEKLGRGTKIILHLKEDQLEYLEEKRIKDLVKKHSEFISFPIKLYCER

Test [2] addresses T1, P. falciparum Hsp90 (PfHsp90, PF07_0029). As to the kind of experiment: coupled LDH/NADH ATPase assay, positive control. The class given is biochemical. Further details: gene PF3D7_0708400; full-length PfHsp90.
Target sequence in this assay (Q8IC05 1-745): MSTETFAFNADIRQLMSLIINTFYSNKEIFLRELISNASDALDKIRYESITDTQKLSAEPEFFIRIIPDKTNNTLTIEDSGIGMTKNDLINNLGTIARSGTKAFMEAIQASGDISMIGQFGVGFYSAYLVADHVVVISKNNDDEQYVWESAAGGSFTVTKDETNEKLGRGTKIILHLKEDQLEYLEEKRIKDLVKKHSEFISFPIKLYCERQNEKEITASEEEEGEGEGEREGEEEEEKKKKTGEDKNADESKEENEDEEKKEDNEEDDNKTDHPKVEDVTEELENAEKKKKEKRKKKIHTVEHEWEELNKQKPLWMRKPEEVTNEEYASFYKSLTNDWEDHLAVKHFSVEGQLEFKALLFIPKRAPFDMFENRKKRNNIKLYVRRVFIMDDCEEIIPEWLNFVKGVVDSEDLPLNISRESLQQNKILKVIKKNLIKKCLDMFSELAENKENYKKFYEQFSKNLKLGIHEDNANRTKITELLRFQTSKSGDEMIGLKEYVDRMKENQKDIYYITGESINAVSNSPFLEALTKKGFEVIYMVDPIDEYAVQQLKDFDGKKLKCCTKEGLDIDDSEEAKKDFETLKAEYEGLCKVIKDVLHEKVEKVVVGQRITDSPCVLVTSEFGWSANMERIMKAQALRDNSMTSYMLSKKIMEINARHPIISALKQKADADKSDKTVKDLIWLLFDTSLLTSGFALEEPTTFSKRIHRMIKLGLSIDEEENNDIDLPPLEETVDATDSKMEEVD

The text below walks through data of paper PMC3787104, “A Purine Analog Synergizes with Chloroquine (CQ) by Targeting Plasmodium falciparum Hsp90 (PfHsp90)” (PLoS ONE, 2013).

By Kd is commonly meant a measure of binding affinity in units of concentration. As a reminder, the IC50 is the concentration needed to halve the response being measured.

In turn, `C=CCNC1=C2C[C@@H](C)C[C@H](OC)[C@H](O)[C@@H](C)/C=C(\C)[C@H](OC(N)=O)[C@@H](OC)/C=C\C=C(/C)C(=O)NC(=CC1=O)C2=O` [17-AAG] yielded a Kd in test [1] of 105 ± 0.33 µM.

In test [2], `C[C@@H]1C[C@H]2O[C@@H]2/C=C\C=C\C(=O)Cc2c(Cl)c(O)cc(O)c2C(=O)O1` [radicicol] displayed an IC50 of 0.144 µM. In other words, the sub-micromolar range.
